Assay results as given in US20220324862A1, “PYRIDOPYRIMIDINONE COMPOUNDS” (Acerand Therapeutics (USA) Limited, priority 2021, published 2022).

Columns and labels:
[1] = system: NCI-H1975 cells; assay: 3D cell proliferation assay; format: cell-based; conditions: Homo sapiens, ultra low attachment plate, 96 hours, 3D CTG
Description: This assay supports the molecular mode of action of compounds. Low IC50 values are indicative of high potency of the SOS1 inhibition. […] This supports the molecular mode of action of the SOS1 inhibitors as selectively targeting cancer cells dependent on receptor tyrosine kinase-RAS/SOS1-family protein function. Cell proliferation assays were performed in three-dimensional (3D) anchorage-independent conditions in 96 well ultra-low attachment plate with the following human cell lines:
NCI-H1975: human non-small cell lung cancer (NSCLC) with wild type KRAS and EGFR L858R/T790M mutation;
Cell lines were purchased from the American Type Culture Collection (ATCC), NCI, or European Collection of Authenticated Cell Cultures (ECACC). All cell lines were maintained in RPMI-1640 or DMEM with 10% heat inactivated fetal bovine serum.
Cells growing in log phase were detached with Gibco™ TrypLE™ Express Enzyme and plated in 96 well ultra low attachment plate at 15000 to 20000 cells/well in 100 μl of media. After overnight incubation at 37° C. and 5% CO2, the cells were treated with compounds (50 μL/well) at the final concentrations spanning 1 nM to 20 μM. Cells were incubated at 37° C., 5% CO2 and 95% humidity incubator for 96 hours. At the end of incubation, a 3D CTG reagent from Promega was added to each well according to vendors recommendation and mixed for 10 minutes in dark. The luminescence signals were determined using Biotek plate reader. The data was fitted using a sigmoidal curve analysis program (GraphPAD Prism) with variable hill slope.

[2] = system: cellular pERK in NCI-H1975 cells (EGFR/L858R-T790M); assay: pERK Potency Assay; format: cell-based; conditions: Homo sapiens, 1 hour incubation, Western blot, read-out: IC50 value, cellular pERK level
Source text: The purpose of this assay is to measure the ability of test compounds to inhibit SOS1 function in cells. SOS1 activates RAS proteins by catalyzing the conversion of RAS-GDP to RAS-GTP in response to receptor tyrosine kinase activation. Activation of RAS induces a sequence of cellular signaling events that results in increased phosphorylation of ERK at Threonine 202 and Tyrosine 204 (pERK). The procedure described below measured the level of cellular pERK in response to test compounds in NCI-H1975 cells (EGFR/L858R-T790M).
NCI-H1975 cells were grown and maintained using media and procedures recommended by the ATCC. On the day prior to compound addition, cells were plated in 24-well cell culture plates (0.9 ml/well) and grown overnight in a 37° C., 5% CO2 incubator. Test compounds were prepared with 3-fold serial dilutions in DMSO, with a top concentration of 10 mM. On the day of the assay, 100 uL of each test compound diluted at 1:100 in media was added to each well of cell culture plate with final concentrations of the compound spanning 0.5 nM to 10 uM. After the compound was added, the cells were incubated for 1 hour at 37° C., 5% CO2. Following incubation, culture medium was removed, and the cells were washed once with phosphate buffered saline and lysed with lysis buffer (20 mM Tris-HCl, pH 7.5, 150 mM NaCl, 1 mM EDTA, 1 mM EGTA, 0.8% NP-40 plus 2× protease and phosphatase inhibitors). Cellular pERK level was determined using the Western blot analysis and quantified with Liqor software. Signal from Western blot was plotted and IC50 values were determined by fitting a 4-parameter sigmoidal concentration response model.

- IC50 [1]: < 100 nM
- IC50 [2]: < 100 nM
SMILES: C#C[C@@H](Nc1nc(C)nc2cc(=O)n(C3(C)CCN(C(C)=O)CC3)cc12)c1cccc(C(F)(F)F)c1C [Compound 33, (R)-6-(1-acetyl-4-methylpiperidin-4-yl)-2-methyl-4-((1-(2-methyl-3-(trifluoromethyl)phenyl)prop-2-yn-1-yl)amino)pyrido[4,3-d]pyrimidin-7(6H)-one]
